Assay results as given in patent US20130136778A1, “PTEROSTILBENE (PTER) FOR USE IN THE PREVENTION AND/OR TREATMENT OF SKIN DISEASES, DAMAGES OR INJURIES” (GREEN MOLECULAR, S.L., priority 2009, published 2013).

What was measured:
[1] = system: SKH-1 mice; test: Anatomopathological study of the skin after chronic exposure to UV-B; assay type: in vivo; settings: chronic UV-B irradiation
Description: Histochemical techniques were used to study the skin tissues of the different procedures, at a microscopic level.
The tissues were fixed in 4% formaldehyde in PBS over 24 h at 22° C. After the tissues were fixed, they had to be dehydrated in large amounts of ethanol and placed in a hydrophobic and xylene mixture to allow the paraffin to penetrate the tissues to provide sufficient consistency for slicing them thinly in a microtome.
The samples in paraffin were processed with the microtome obtaining slices of about 5-10 μm. The samples were spread over a drop of gelatin at 37° C. and were collected in gelatinized slides.
The protocol used for staining the samples was: • 1. Incubation with Mayer's Hematoxylin for 10-15 minutes. • 2. Wash under running water until bluish. • 3. Incubate with Eosin (1%) for 2-4 minutes. • 4. Eliminate the remaining eosin in ethanol 70° • 5. Dehydration. • 6. Rinse with xylol for 3 minutes. • 7. Let the trays dry out on the stove at 37°.
In relation to the histopathological exam of the tumors induced by chronic irradiation to UV in the SKH1 mice, it was confirmed that the treatment with UV-B produced a strong acanthosis due primarily to the inflammatory process; this gave way to the first signs of tumors, mostly of carcinoma type and not melanoma.
Both the reference compounds and the ones subject of this study (10 μmoles/mouse of polyphenols, or 200 μl of each photoprotector) were applied to the back of the mice for 20 minutes prior to their exposure to UV-B. Medium of groups of 20 mice. Every parameter was measured according to the degree of seriousness (+) light-(+++) serious.

[2] = system: SKH-1 mice; test: Skinfold thickness (edema) after acute UV-B exposure of 360 mJ/cm2; assay type: in vivo
Description: UVB Acute exposure protocols were used: Mice underwent a single exposure of 360 mJ/cm2. The study was conducted at 24 hours after exposure. This protocol was used to evaluate the photoprotective effect of the compounds studied. With the same acute-phase protocol mice from all groups were irradiated. Subsequently mice remained in the animal storage area for a week to see the evolution of the inflammatory response and edema. For the UVB exposure studies (chronic or acute) a topical administration to the back of the mouse was conducted. The commercial sunscreens were applied directly on the mouse. The polyphenols in the study were administered in a liposomal preparation diluted 1:1 with Carbopol polymer which will be the vehicle for these liposomes. Each polyphenol dose administered was 10 μmol/mouse, as free acid. • 1. Edema formation: skinfold thickness was determined with a caliper 24 hours after the first exposure. • 2. Study of the thickness of the epidermis after exposure to acute irradiation (360 mj/cm^2 24 h hours and 7 days after irradiation). • 3. Histological studies: measuring, in the pictures obtained from histological sections, the thickness of the epidermis. With the purpose of assessing the effects of the photoprotective compounds studied, female mice SKH-1 of between 6-8 weeks old were subjected to a single exposure of 360 mJ/cm. For the ultraviolet B (UVB) irradiation exposure, a camera specifically prepared, available at our laboratory was used (Crosslinker; Bio-Link BLX 254) equipped with 5 tubes that produce 80% of the UVB radiation, with a maximum emission of 312 nm. The two protocols of UV-B exposure used were: • Intense exposure after a single exposure of 360 mJ/cm^2. The study was carried out 24 hours after the exposure. This protocol was used to assess the photoprotective effects of the compounds studied. • Intense exposure after a single exposure of 360 mJ/cm^2. The study was carried out 1 week after the exposure. The mice were kept in the shed for a week to observe the evolution of the inflammatory and edematous response. As reference, several commercial photoprotective products were used ([…] Heliocare). The reference compounds as well as the products object of this study, were applied on the back of the mice for 20 minutes after or 20 minutes before the irradiation with UV-B, to determine if the reaction observed was due to an effect of the solar filter or not. […] The skinfold was measured by making a fold on the skin from the back of the mice, from the axillae to the hips; the fold was measured with a vernier caliper. The increase in the fold was calculated by the difference between the initial point, before the effects of the reaction, and the thickness in each point.

[3] = Absorption spectrum of polyphenols (mechanical filter capacity); assay type: physicochemical; settings: 1 mM in pure ethanol, 200-800 nm
Description: A solution of 1 mM of each polyphenol was prepared (PTER, Resveratrol and QUER) in absolute ethanol (HPLS quality; Quima) and the absorption spectrum was studied between 200 and 800 nm using a Multiskan Spectrum (ThermoScientific).
With the purpose of studying the capacity of the polyphenols used in this study, we decided to evaluate the absorption of light throughout the ultraviolet light spectrum as shown in FIG. 13.

[4] = system: SKH-1 mice; test: Experimental psoriasis induced by TPA; assay type: in vivo
Description: For the induction of psoriasis, the agent “12-O-tetradecanoylphorbol-13 acetate” (TPA) was used.
Since our objective was to assess the progress of the lesions caused by psoriasis in combination with the use of polyphenols, a model of continuous exposure and a weaker concentration of TPA were used, on a daily dose of 2 nmoles of TPA over a period of a week, which allowed us to observe the progress of the psoriasis.
The induction was performed with 2 nmol TPA/mouse on an area of 1 cm^2, applying 10 μL of the 200 μM solution in acetone. This application protocol was carried out taking into account that when applying 20 μL as stated in the model, the volume increased considerably and it lost its concentration, therefore it was decided to make it more concentrated.
As a standard treatment, Dexamethasone was used, (from Sigma Solution 25 mM in acetone). The administration of the standard treatment and the products to be tested were given 30 minutes prior to the application of TPA, both beginning on the same day.
The groups, of 6 mice, for this assessment were: • Not treated. • Reference compound: 0.5 μmoles of Dexamethasone (200 μL of one solution 25 mM in acetone). • Medium: 200 μl of vacuumed Liposomes. • Resveratrol: 200 μL of Resveratrol Liposomes (10 μmol in total). • PTER: 200 μL of PTER Liposomes (10 μmol in total). • QUER: 200 μL of QUER Liposomes (10 μmol in total). • PTER+QUER:: 200 μL of PTER Liposomes+QUER (10 μmol in total).
At 24 hours (day 7) after the last administration of the different treatments and TPA, 3 mice from each group were sacrificed and their skin fixed with 4% PFA. The remaining mice were kept under the treatment with no exposure to TPA, to verify if the skin recovered faster on the treatment than on its own. At 24 hours (day 9) after the last administration of the different treatments the rest of the mice were sacrificed and their skin fixed with 4% PFA.
The flaky aspect of the skin was quantified in a scale of 0-3, being 0, nothing; 1, mild; 2, moderate; 3, severe.

SMILES: COc1cc(/C=C/c2ccc(O)cc2)cc(OC)c1 [PTER, 3,5-dimethoxy-4′-hydroxy-trans-resveratrol]
- anti-inflammatory and anti-tumor formation effect, histopathological exam [1]: the compound with greatest benefits
- formation of the edema (thickness of the skin) after severe UV-B exposure ([2]; FIG. 1): the formation of the edema was reduced
- skinfold thickness 24 h after irradiation, applied after UVB ([2]; FIG. 1, applied 20 min after): more efficient for the treatment of skin diseases, damages or injuries due to radiation, when applied after the exposure to UVB, than the commercial creams (Vichy, Heliocare and Isdin) and that RESV
- skinfold thickness 24 h after irradiation, applied before UVB ([2]; FIG. 1, applied 20 min before): more efficient as photoprotector, when applied before the exposure to UVB, than the commercial creams (Vichy, Heliocare and Isdin) and that RESV
- absorption of light, range of maximum absorption [3]: peaks or maximum absorption in the range of Ultraviolet B
- index of excoriation or descaling (scale 0-3) ([4]; 24 hours after 7 administrations of TPA): fewer indexes of excoriation or descaling
- increase of skinfold throughout the procedure ([4]; FIG. 23, 6 consecutive days, treatment 30 min prior to 2 nmol TPA): an important decrease in the increase of skinfolds
- increase in the skinfold 24 hours after the first administration of TPA ([4]; FIG. 24, treatment 30 min prior to 2 nmol TPA): significantly diminished the appearance of edema
- skinfold after 3 administrations of TPA ([4]; FIG. 25): produce a diminishing effect on the inflammation produced by TPA
- histological analysis of the lesions ([4]; FIG. 28, hematoxylin-eosin, TPA daily over 7 days): no signs of papillomatosis, but there was acanthosis due to a massive proliferation
